According to ChEMBL document CHEMBL1134980, “Structure-activity relationships for a series of thiobenzamide influenza fusion inhibitors derived from 1,3,3-trimethyl-5-hydroxy-cyclohexylmethylamine” (Bioorg Med Chem Lett, 2002):
≈ marks a conversion by molar mass, not a printed value.

Experiments:
MDCK = experiment: The concentration causing a 50% reduction in cell viability in the absence of influenza infection on MDCK cells in cell protection assay.; type: functional; conditions: Canis lupus familiaris
Influenza A virus = experiment: Anti-influenza activity on A/WSN/33 (H1N1 subtype) strain of influenza virus infected on MDCK cells in cell protection assay.; type: functional, organism-based

Structure (SMILES) | CC50 (MDCK) | EC50 (Influenza A virus) | IC50 (Influenza A virus)
Cc1cc(C)cc(/C(S)=N/C[C@@]2(C)C[C@@H](O)CC(C)(C)C2)c1 | 40 µg/mL (≈ 125 µM) | Not Active | 0.5 µg/mL (≈ 1.56 µM)
COc1ccccc1/C(S)=N/C[C@@]1(C)C[C@@H](O)CC(C)(C)C1 | 45 µg/mL (≈ 140 µM) | Not Active | Not Active
CC1(C)C[C@@H](O)C[C@](C)(C/N=C(\S)c2cccc(C(F)(F)F)c2)C1 | 15 µg/mL (≈ 41.7 µM) | 0.09 µg/mL (≈ 0.25 µM) | 0.3 µg/mL (≈ 0.835 µM)
CC1(C)C[C@@H](O)C[C@](C)(CNC(=O)Nc2ccccc2Cl)C1 | – | – | 0.1 µg/mL (≈ 0.308 µM)
COC(=O)c1cccc(/C(S)=N/C[C@@]2(C)C[C@H](O)CC(C)(C)C2)c1 | 50 µg/mL (≈ 143 µM) | Not Active | Not Active
CC1(C)C[C@@H](O)C[C@](C)(C/N=C(\S)c2ccccc2)C1 | 10 µg/mL (≈ 34.3 µM) | 0.05 µg/mL (≈ 0.172 µM) | 0.15 µg/mL (≈ 0.515 µM)
CC1(C)C[C@@H](O)C[C@](C)(C/N=C(\S)c2ccccc2O)C1 | 40 µg/mL (≈ 130 µM) | 2 µg/mL (≈ 6.5 µM) | 2.4 µg/mL (≈ 7.81 µM)
CC1(C)C[C@H](O)C[C@](C)(CNC(=O)Nc2ccccc2Cl)C1 (relative stereo) | – | – | 0.1 µg/mL (≈ 0.308 µM)
Cc1ccccc1/C(S)=N/C[C@@]1(C)C[C@@H](O)CC(C)(C)C1 | 2 µg/mL (≈ 6.55 µM) | Not Active | 2.4 µg/mL (≈ 7.86 µM)
Cc1ccc(/C(S)=N/C[C@@]2(C)C[C@@H](O)CC(C)(C)C2)c(C)c1 | 30 µg/mL (≈ 93.9 µM) | Not Active | Not Active
CC1(C)C[C@@H](O)C[C@](C)(C/N=C(\S)c2cccc([N+](=O)[O-])c2)C1 | 15 µg/mL (≈ 44.6 µM) | Not Active | 1.8 µg/mL (≈ 5.35 µM)
Cc1ccc(O)c(C(=O)NC[C@@]2(C)C[C@H](O)CC(C)(C)C2)c1 | 70 µg/mL (≈ 229 µM) | 0.15 µg/mL (≈ 0.491 µM) | 0.015 µg/mL (≈ 0.0491 µM)
Cc1ccc(C)c(/C(S)=N/C[C@@]2(C)C[C@@H](O)CC(C)(C)C2)c1 | 30 µg/mL (≈ 93.9 µM) | Not Active | 1.5 µg/mL (≈ 4.69 µM)
CC1(C)C[C@H](O)C[C@](C)(CNC(=O)c2cc(Cl)ccc2O)C1 | 80 µg/mL (≈ 246 µM) | 0.06 µg/mL (≈ 0.184 µM) | 0.025 µg/mL (≈ 0.0767 µM)
Cc1ccc(O)c(/C(S)=N/C[C@@]2(C)C[C@@H](O)CC(C)(C)C2)c1 | 15 µg/mL (≈ 46.7 µM) | 0.4 µg/mL (≈ 1.24 µM) | 0.16 µg/mL (≈ 0.498 µM)
CC1(C)C[C@@H](O)C[C@](C)(C/N=C(\S)c2cc(Cl)ccc2O)C1 | 4 µg/mL (≈ 11.7 µM) | 1.8 µg/mL (≈ 5.26 µM) | 1 µg/mL (≈ 2.92 µM)
CC1(C)C[C@H](O)C[C@](C)(C/N=C(\S)c2cccc(F)c2)C1 | 20 µg/mL (≈ 64.6 µM) | Not Active | 5 µg/mL (≈ 16.2 µM)
CC1(C)C[C@H](O)C[C@](C)(C/N=C(\S)c2ccccc2O)C1 | 40 µg/mL (≈ 130 µM) | 4.5 µg/mL (≈ 14.6 µM) | 2.4 µg/mL (≈ 7.81 µM)
CC1(C)C[C@H](O)C[C@](C)(C/N=C(\S)c2cccc(Cl)c2)C1 | 8.5 µg/mL (≈ 26.1 µM) | Not Active | 2.5 µg/mL (≈ 7.67 µM)
Cc1cc(C)cc(/C(S)=N/C[C@@]2(C)C[C@H](O)CC(C)(C)C2)c1 | 18 µg/mL (≈ 56.3 µM) | 0.03 µg/mL (≈ 0.0939 µM) | 0.52 µg/mL (≈ 1.63 µM)

Structure (SMILES) | CC50 (MDCK) | EC50 (Influenza A virus) | IC50 (Influenza A virus)
CC1(C)C[C@@H](O)C[C@](C)(C/N=C(\S)c2cccc(C#N)c2)C1 | 22 µg/mL (≈ 69.5 µM) | 2.5 µg/mL (≈ 7.9 µM) | Not Active
Cc1ccc(/C(S)=N/C[C@@]2(C)C[C@@H](O)CC(C)(C)C2)cc1 | 25 µg/mL (≈ 81.8 µM) | Not Active | Not Active
CC1(C)C[C@@H](O)C[C@](C)(C/N=C(\S)c2cccc(F)c2)C1 | 70 µg/mL (≈ 226 µM) | 0.038 µg/mL (≈ 0.123 µM) | 0.19 µg/mL (≈ 0.614 µM)
CC1(C)C[C@H](O)C[C@](C)(C/N=C(\S)c2cc(Cl)ccc2O)C1 | 5.5 µg/mL (≈ 16.1 µM) | 0.9 µg/mL (≈ 2.63 µM) | 2.8 µg/mL (≈ 8.19 µM)
Cc1ccc(/C(S)=N/C[C@@]2(C)C[C@H](O)CC(C)(C)C2)cc1 | 40 µg/mL (≈ 131 µM) | Not Active | 7 µg/mL (≈ 22.9 µM)
Cc1cccc(/C(S)=N/C[C@@]2(C)C[C@@H](O)CC(C)(C)C2)c1 | 20 µg/mL (≈ 65.5 µM) | Not Active | 7.5 µg/mL (≈ 24.6 µM)
CC1(C)C[C@@H](O)C[C@](C)(C/N=C(\S)c2cccc(Cl)c2)C1 | 20 µg/mL (≈ 61.4 µM) | 0.02 µg/mL (≈ 0.0614 µM) | 0.047 µg/mL (≈ 0.144 µM)
CC1(C)C[C@H](O)C[C@](C)(CNC(=O)c2ccccc2O)C1 | 70 µg/mL (≈ 240 µM) | – | –
CC1(C)C[C@@H](O)C[C@](C)(CNC(=O)c2cc(Cl)ccc2O)C1 | > 100 µg/mL | 0.2 µg/mL (≈ 0.614 µM) | 0.15 µg/mL (≈ 0.46 µM)
Cc1ccc(O)c(C(=O)NC[C@@]2(C)C[C@@H](O)CC(C)(C)C2)c1 | 50 µg/mL (≈ 164 µM) | 0.03 µg/mL (≈ 0.0982 µM) | 0.039 µg/mL (≈ 0.128 µM)
Cc1ccc(O)c(/C(S)=N/C[C@@]2(C)C[C@H](O)CC(C)(C)C2)c1 | 20 µg/mL (≈ 62.2 µM) | 0.5 µg/mL (≈ 1.56 µM) | 0.33 µg/mL (≈ 1.03 µM)
Cc1ccccc1/C(S)=N/C[C@@]1(C)C[C@H](O)CC(C)(C)C1 | 70 µg/mL (≈ 229 µM) | 0.065 µg/mL (≈ 0.213 µM) | 0.14 µg/mL (≈ 0.458 µM)
COc1ccccc1/C(S)=N/C[C@@]1(C)C[C@H](O)CC(C)(C)C1 | 43 µg/mL (≈ 134 µM) | 1 µg/mL (≈ 3.11 µM) | 0.5 µg/mL (≈ 1.56 µM)
Cc1cccc(/C(S)=N/C[C@@]2(C)C[C@H](O)CC(C)(C)C2)c1 | 35 µg/mL (≈ 115 µM) | 0.015 µg/mL (≈ 0.0491 µM) | 0.03 µg/mL (≈ 0.0982 µM)
CC1(C)C[C@H](O)C[C@](C)(C/N=C(\S)c2ccccc2)C1 | 50 µg/mL (≈ 172 µM) | Not Active | 3.5 µg/mL (≈ 12 µM)
Cc1ccc(C)c(/C(S)=N/C[C@@]2(C)C[C@H](O)CC(C)(C)C2)c1 | 45 µg/mL (≈ 141 µM) | 0.023 µg/mL (≈ 0.072 µM) | 0.08 µg/mL (≈ 0.25 µM)
CC1(C)C[C@@H](O)C[C@](C)(CNC(=O)c2ccccc2O)C1 | 90 µg/mL (≈ 309 µM) | – | –
CC1(C)C[C@H](O)C[C@](C)(C/N=C(\S)c2cccc(C(F)(F)F)c2)C1 | 5 µg/mL (≈ 13.9 µM) | Not Active | 23 µg/mL (≈ 64 µM)
Cc1ccc(/C(S)=N/C[C@@]2(C)C[C@H](O)CC(C)(C)C2)c(C)c1 | 35 µg/mL (≈ 110 µM) | 0.15 µg/mL (≈ 0.469 µM) | 0.45 µg/mL (≈ 1.41 µM)
